Assay results as given in patent US20110046223A1, “TREATMENT OF NEUROFIBROMATOSIS” (RAMOT AT TEL-AVIV UNIVERSITY LTD., priority 2006, published 2011).

How the values were obtained:
[1] = system: NF-1−/− and NF-1+/− SV40 MEFs; experiment: colchicine-induced death, cell viability by MTT assay; assay type: cell-based, mouse; conditions: NF-1−/− and NF-1+/− cells; 75 μM FTS or vehicle 24 h, then colchicine 4.5 h
Procedure: (§1) Human NF-1 ST88-14 MPNST, non-NF-1 STS26T MPNST, and the different primary and SV40-immortalized NF-1 genotypes (NF-1^−/−, NF-1^+/−, and NF-1^+/+) of mouse embryonic fibroblasts (MEFs) were grown in high-glucose Dulbecco's modified Eagle's medium (DMEM) supplemented with 10% heat-inactivated fetal calf serum (both from Biological Industries, Beit Ha Emek, Israel) with 0.0004% β-mercaptoethanol added to the MEF growth medium only.
(§2) The three primary NF-1 MEF genotypes were immortalized by transfection with SV40 whole genome DNA (a gift from Dr. Atan Gross, The Weizmann Institute of Science) using the lipofectamine transfection reagent (InvitroGen Life Technologies, Paisley, UK). One day before transfection, primary MEFs were seeded at a density of 2×10^5 cells per well in 6-well plates. To each dish we added 1 ml of DNA-lipofectamine mixture, 0.1 μg SV40 whole genome DNA, and 10 μg of lipofectamine in 1 ml of OptiMEM (InvitroGen), according to the manufacturer's instructions. The cells were split 24 h after transfection and seeded in 10-cm^2 dishes at a density of 1×10^3 to 1×10^4 cells per dish. Immortalized clones from each NF-1 genotype were collected 14 days after transfection.
(§3) Cell viability was determined by the MTT assay.

NF-1+/+ SV40 MEFs = experiment: as above; assay type: cell-based, mouse; conditions: NF-1+/+ cells; 75 μM FTS or vehicle 24 h, then colchicine 4.5 h
Procedure: as §1, §2, §3

## COc1cc2c(c(OC)c1OC)-c1ccc(OC)c(=O)cc1[C@@H](NC(C)=O)CC2 [colchicine, Acetamide, N-((7S)-5,6,7,9-tetrahydro-1,2,3,10-tetramethoxy-9-oxobenzo(a)heptalen-7-yl)-]
[1]
  cell survival / colchicine-induced cell death: only a small effect on cell survival
NF-1+/+ SV40 MEFs
  cell survival / colchicine-induced cell death: induced death
